Experimental data taken from article PMC4893161, “The Dynamic Localization of Cytoplasmic Dynein in Neurons Is Driven by Kinesin-1” (Neuron, 2016).

Legend:
[1] = target: T1, KLC2 TPR domain (KLC2^TPR) (Mus musculus, UniProt O88448); assay: Fluorescence polarization binding to KLC2 TPR domain; conditions: 150 mM NaCl, pH 7.5, 20 °C
T1 construct: amino acids V218 to K480) was amplified from a mouse; made in house; host or cells: E. coli (inferred from the pET28a vector
Method: (§1) Measurements were performed as previously described ([Pernigo et al., 2013]) with modifications as listed in Supplemental Experimental Procedures. […]
(§2) minutes with the addition of 15 µl of washed pre-equilibrated Protein-G Dynabeads. Beads were washed three times in IP buffer and then boiled in 50 µl 1X SDS-loading buffer. Samples were separated by SDS-PAGE and transferred to immobilon-PVDF membrane (Millipore) for western blotting. Primary antibodies listed above. HRP conjugated secondary antibodies were from Jackson. […]
(§3) Fluorescence polarization measurements […]
(§4) […] All fluorescence polarization (FP) measurements were carried out on a BMG Labtech PolarStar Omega plate reader at 20 °C by incubating 300 nM TAMRA-labeled peptides with His6-tagged KLC2TPR at increasing concentrations in 25 mM Hepes pH 7.5, 150 mM NaCl, 5 mM β-mercaptoethanol. […]
(§5) Four mouse brains were homogenized in 16 ml of ice cold Homogenization buffer (10 mM HEPES pH 7.4, 0.32 M sucrose, 2 mM EDTA plus protease inhibitors) then centrifuged at 1000 g for 15 min at 4 °C to form supernatant ‘S1’ and pellet ‘P1’. […] Samples of S1-P3 were taken at each stage and protein content measured by BCA assay and normalized to 1 mg/ml with 10 µg loaded on gels. […] Protein concentration and turbidity of fractions was analyzed at 280 and 340 nm respectively in a SynergyMx plate reader (BioTek). […]

[2] = system: KLC1 TPR domain (KLC1^TPR); assay: Fluorescence polarization binding to KLC1 TPR domain; conditions: 150 mM NaCl, pH 7.5, 20 °C
Method: as §1, §2, §3, §4, §5

T1 sequence (O88448 217-478 limits assumed): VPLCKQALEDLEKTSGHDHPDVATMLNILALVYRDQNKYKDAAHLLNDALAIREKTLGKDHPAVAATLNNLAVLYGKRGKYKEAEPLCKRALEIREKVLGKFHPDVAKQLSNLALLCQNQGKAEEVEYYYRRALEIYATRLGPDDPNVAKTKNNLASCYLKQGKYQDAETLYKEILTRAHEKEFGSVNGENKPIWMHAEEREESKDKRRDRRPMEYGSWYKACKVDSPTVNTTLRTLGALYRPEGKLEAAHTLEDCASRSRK

interaction with KLC2 TPR [1]: did not show an interaction
interaction with KLC1 TPR [2]: did not show an interaction
Substance: TAMRA-TRTLQWDTDPS [WD2^pept, peptide centered on the second tryptophan motif of DIC1]
